Laboratory results reported in EP0187057A1, “2-Phenyl-isopropyl-allophanate, preparation and pharmaceutical application” (priority 1984, dated 1986).
Where two headings read alike, the source gives them in different places.

Columns and labels:
[1] = Acute toxicity by the digestive route, lethality after one week of observation; format: in vivo, souris; details: mouse, in vivo, po; for mortality at 168 h: read-out: Pourcentage de létalité Souris
Protocol: (§1) Des doses croissantes de produit (SCS 289) ont été administrées, par voie digestive, sous forme de suspensions gommeuses, sous le volume de 0,50 ml/20 g de poids corporel chez la souris et 0,50 ml/100 g de poids corporel chez le rat (de 500 à 4000 mg/kg avec des intervalles de 500 mg/kg).
(§2) Les animaux ont été maintenus en observation pendant une semaine, tout d'abord dans le laboratoire (avec un chauffage d'appoint) jusqu'au réveil des animaux endormis, puis dans l'unité animale conditionnée et climatisée.
(§3) Le taux de mortalité relevé dans chaque lot de rats et de souris au terme de la semaine d'observation a été le suivant :
(§4) Les valeurs des DL50, calculées par la méthode de Miller et Tainter sont respectivement de : • - 2300 ± 102 m^g/k^g chez la souris; • - 2050 + 220 mg/kg chez le rat.

[2] = test system: souris; assay: as above; format: in vivo; details: souris, voie digestive, méthode de Miller et Tainter; 10080 min
Protocol: as §1, §2, §3, §4

[3] = as above; details: in vivo, po, rat; for mortality at 168 h: read-out: Pourcentage de létalité Rats
Protocol: as §1, §2, §3, §4

[4] = test system: crises épileptiformes consécutives à l'électrochoc; assay: Maximal electroshock producing epileptiform 'grand mal' seizures (1st and 2nd electroshock); format: in vivo, lapin
Excerpt: (§5) Propriétés anticonvulsivantes : • On a effectué, pour déterminer ces propriétés anticonvulsivantes, des expérimentations sur le SCS 289 en procédant à des essais de protection : • - chez le lapin soumis à une transélectrification cranienne génératrice de crises épileptiformes de type "grand mal" ou recevant une infusion veineuse de pentétrazol provoquant l'apparition de myoclonies palpébrales; • - chez la souris recevant, par voie sous-cutanée des doses croissantes de pentétrazol entraînant convulsions et mort ou soumise à une transélectrification transcranienne à basse fréquence génératrice de crises psychomotrices.
Ne considérant comme significative, que la protection complète, les traitements pratiqués une heure avant le second électrochoc ont conféré les protection suivantes (sur groupes de dix lapins) :
Si, par ailleurs, on considère la protection contre les crises toniques (hyperextension des pattes postérieures), il apparaît également une synergie particulièrement aux doses associées de 200 mg/kg de produits.

[5] = test system: crises pentétrazoliques; assay: Convulsant and lethal effects of subcutaneous pentetrazol (125 mg/kg); format: in vivo, souris
Excerpt: as §5
Pour déceler une synergie d'action antagoniste vis-à-vis des effets convulsivants et létaux du pentétrazol injecté par voie sous-cutanée chez la souris à la dose de 125 mg/kg, on a déterminé avec plus de précision la DE50 du SCS 289 et on a recherché si l'association avec le SCS 35 apportait un surcroit appréciable d'activité.
On n'a retenu comme significative que la protection à l'égard des effets létaux observés sur 24 heures.

CC(C)OC(=O)N(C(N)=O)c1ccccc1 [SCS 289, phényl-2 allophanate d'isopropyle]
mortality at 168 h ([1]; 500 mg/kg voie digestive): 0% | mortality at 168 h ([1]; 1000 mg/kg voie digestive): 0% | mortality at 168 h ([1]; 1500 mg/kg voie digestive): 0% | mortality at 168 h ([1]; 2000 mg/kg voie digestive): 20% | mortality at 168 h ([1]; 2500 mg/kg voie digestive): 40% | mortality at 168 h ([1]; 3000 mg/kg voie digestive): 100% | mortality at 168 h ([1]; 3500 mg/kg voie digestive): 100% | mortality at 168 h ([1]; 4000 mg/kg voie digestive): 100% | LD50 at 168 h ([1]; souris, voie digestive, méthode de Miller et Tainter, read-out: DL50): 2300 ± 102 mg/kg | DL50 [2]: 2300 + 102 mg/kg | LD50 at 168 h ([3]; voie digestive, méthode de Miller et Tainter, read-out: DL50): 2050 mg/kg | mortality at 168 h ([3]; 500 mg/kg voie digestive): 0% | mortality at 168 h ([3]; 1000 mg/kg voie digestive): 15% | mortality at 168 h ([3]; 1500 mg/kg voie digestive): 30% | mortality at 168 h ([3]; 2000 mg/kg voie digestive): 55% | mortality at 168 h ([3]; 2500 mg/kg voie digestive): 60% | mortality at 168 h ([3]; 3000 mg/kg voie digestive): 65% | mortality at 168 h ([3]; 3500 mg/kg voie digestive): 80% | mortality at 168 h ([3]; 4000 mg/kg voie digestive): 100% | % d'animaux protégés contre les seules crises toniques ([4]; 100 mg/kg, hyperextension tonique des pattes postérieures): 60% | % d'animaux protégés contre les seules crises toniques ([4]; 200 mg/kg): 50% | protection contre la forme tonique des convulsions (animals out of ten) ([4]; 200 mg/kg): cinq animaux sur dix | % d'animaux protégés complètement ([4]; 200 mg/kg, one hour before second electroshock, groups of ten rabbits): 20% | % de protection vis-à-vis de la létalité pentétrazolique ([5]; 10 mg/kg): 20% | % de létalité en 24 h ([5]; 10 mg/kg 1 h avant pentétrazol 125 mg/kg s.c., untreated 100): 80% | % de protection vis-à-vis de la létalité pentétrazolique ([5]; 20 mg/kg): 70% | % de létalité en 24 h ([5]; 20 mg/kg 1 h avant pentétrazol): 30% | % de protection vis-à-vis de la létalité pentétrazolique ([5]; 30 mg/kg): 100% | % de létalité en 24 h ([5]; 30 mg/kg 1 h avant pentétrazol): 0% | % de protection vis-à-vis de la létalité pentétrazolique ([5]; 40 mg/kg): 100% | % de létalité en 24 h ([5]; 40 mg/kg 1 h avant pentétrazol): 0% | % de protection vis-à-vis de la létalité pentétrazolique ([5]; 50 mg/kg): 100% | % de létalité en 24 h ([5]; 50 mg/kg 1 h avant pentétrazol): 0% | ED50 ([5]; Mus musculus, sc, 24 h, souris, read-out: DE50 à l'égard des crises pentétrazoliques maximales et létales): 15 mg/kg | DL50/DE50 /pentétrazol ([5]; index thérapeutique absolu, souris): 153
